Each structure is given as a SMILES string.

The assay deals with Nucleic Acid. As to the kind of experiment: Binding constant were determined from viscometric titrations with closed circular superhelical DNA.
`CN(C)CCCNc1c2ccc(Cl)cc2nc2ccc(Cl)cc12` gave a K app of 160000. Compound `Cc1ccc2nc3cc(Cl)ccc3c(NCCCN(C)C)c2c1` had a K app of 290000.

On to `CN(C)CCCNc1c2ccc(Cl)cc2nc2ccc(F)cc12`, for which the K app is 160000. The figure for `COc1ccc2nc3cc(Cl)ccc3c(NCCCN(C)C)c2c1` is 210000; for `CSc1ccc2nc3cc(Cl)ccc3c(NCCCN(C)C)c2c1` it is 200000; for `CN(C)CCCNc1c2ccccc2nc2cc(Cl)ccc12` it is 130000.

For the origin of these results see ChEMBL document CHEMBL1123147, “The intercalation of 6-chloro-substituted-9-[[3-(dimethylamino)propyl]amino]acridines with DNA” (J Med Chem, 1985).
